In ChEMBL document CHEMBL1201862, “PubChem BioAssay data set” (2004):
Active and inactive are the calls of the source.

How the values were obtained:
[1] = biological target: T1, SUMO-activating enzyme (Homo sapiens, UniProt Q9UBT2); assay: SUMOylation inhibitor hit validation, confirmation, SUMOylation inhibitor project, biochemical, AlphaScreen (AID 2018); assay type: functional
[2] = biological target: T1, SUMO-activating enzyme; assay: inhibitors of in vitro SUMOylation cascade, primary screen, biochemical, HTRF, uHTS (AID 2006); assay type: protein-complex assay
[3] = biological target: Induced myeloid leukemia cell differentiation protein Mcl-1 (Homo sapiens, UniProt Q07820); assay type: functional
Chain of Induced myeloid leukemia cell differentiation protein Mcl-1 (Q07820 whole entry): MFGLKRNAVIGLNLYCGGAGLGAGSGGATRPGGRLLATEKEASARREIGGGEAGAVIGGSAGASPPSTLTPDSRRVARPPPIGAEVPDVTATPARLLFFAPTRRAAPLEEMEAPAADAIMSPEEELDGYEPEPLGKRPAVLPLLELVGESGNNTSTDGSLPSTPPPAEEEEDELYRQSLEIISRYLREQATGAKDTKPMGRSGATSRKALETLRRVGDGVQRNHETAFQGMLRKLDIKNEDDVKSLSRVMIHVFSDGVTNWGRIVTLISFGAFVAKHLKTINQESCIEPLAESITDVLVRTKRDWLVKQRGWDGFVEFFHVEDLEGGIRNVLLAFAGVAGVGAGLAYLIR

[4] = biological target: T2, E3 ubiquitin-protein ligase XIAP (Homo sapiens, UniProt P98170); assay: XIAP antagonists, biochemical, IAP family, fluorescence polarization (AID 1018); assay type: functional
T2 sequence (P98170 whole entry): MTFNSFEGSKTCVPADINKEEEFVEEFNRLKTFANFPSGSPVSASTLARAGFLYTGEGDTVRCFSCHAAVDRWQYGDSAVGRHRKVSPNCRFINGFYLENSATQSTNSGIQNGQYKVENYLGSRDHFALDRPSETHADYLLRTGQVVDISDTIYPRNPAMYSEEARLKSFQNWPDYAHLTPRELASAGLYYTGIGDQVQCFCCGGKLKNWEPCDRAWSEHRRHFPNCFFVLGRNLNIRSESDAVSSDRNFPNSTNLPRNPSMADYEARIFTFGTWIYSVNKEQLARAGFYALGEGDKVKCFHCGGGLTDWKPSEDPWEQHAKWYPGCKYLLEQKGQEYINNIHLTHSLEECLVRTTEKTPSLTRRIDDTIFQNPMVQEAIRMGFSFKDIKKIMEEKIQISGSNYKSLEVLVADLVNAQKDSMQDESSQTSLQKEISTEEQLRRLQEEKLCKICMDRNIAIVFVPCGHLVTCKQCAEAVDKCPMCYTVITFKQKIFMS

[5] = biological target: T2, E3 ubiquitin-protein ligase XIAP; assay: Counter Screen using XIAP-Bir3 for Chemical Antagonists of Bir1/2 domains of IAP-family anti-apoptotic proteins. [Related pubchem assays (depositor defined):AID1018, AID1449, AID1514, AID1638, AID1749, AID1750, AID488957, AID488963]
[6] = HepG2 cell cytotoxicity, dose response, cytotoxicity control for non-replicating M. tuberculosis project (AID 489018); assay type: functional; conditions: Mycobacterium tuberculosis
[7] = biological target: Vasopressin V1a receptor (Homo sapiens, UniProt P37288); assay: Counterscreen for Oxytocin Receptor (OXTR) agonists: Fluorescence-based cell-based high throughput dose response assay to identify agonists of the vasopressin 1 receptor (V1R). [Related pubchem assays: 2435 (Primary screen (OXTR agonists in singlicate)), 434991 (Counterscreen (V1R agonists in triplicate)), 2482 (Summary (OXTR agonists)) …; assay type: functional
Chain of Vasopressin V1a receptor (P37288 whole entry): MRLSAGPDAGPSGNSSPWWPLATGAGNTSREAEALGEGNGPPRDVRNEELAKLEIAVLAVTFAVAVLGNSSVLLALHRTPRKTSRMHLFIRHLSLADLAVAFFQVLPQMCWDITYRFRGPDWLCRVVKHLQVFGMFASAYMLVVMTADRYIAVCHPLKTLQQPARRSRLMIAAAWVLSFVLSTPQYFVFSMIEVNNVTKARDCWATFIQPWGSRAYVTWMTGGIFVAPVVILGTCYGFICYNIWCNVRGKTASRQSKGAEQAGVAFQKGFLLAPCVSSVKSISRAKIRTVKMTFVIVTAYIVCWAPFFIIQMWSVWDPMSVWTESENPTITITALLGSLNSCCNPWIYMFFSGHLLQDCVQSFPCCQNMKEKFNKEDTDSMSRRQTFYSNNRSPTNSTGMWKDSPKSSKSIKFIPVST

[8] = cells; assay type: functional
[9] = biological target: Oxytocin receptor (Homo sapiens, UniProt P30559); assay: Fluorescence-based cell-based high throughput dose response assay for agonists of the Oxytocin Receptor (OXTR). [Related pubchem assays: 2435 (Primary screen (OXTR agonists in singlicate)), 434991 (Counterscreen (V1R agonists in triplicate)), 2482 (Summary (OXTR agonists)), 434963 (Confirmation screen (OXTR agonists in triplicate))]; assay type: functional
Chain of Oxytocin receptor (P30559 whole entry): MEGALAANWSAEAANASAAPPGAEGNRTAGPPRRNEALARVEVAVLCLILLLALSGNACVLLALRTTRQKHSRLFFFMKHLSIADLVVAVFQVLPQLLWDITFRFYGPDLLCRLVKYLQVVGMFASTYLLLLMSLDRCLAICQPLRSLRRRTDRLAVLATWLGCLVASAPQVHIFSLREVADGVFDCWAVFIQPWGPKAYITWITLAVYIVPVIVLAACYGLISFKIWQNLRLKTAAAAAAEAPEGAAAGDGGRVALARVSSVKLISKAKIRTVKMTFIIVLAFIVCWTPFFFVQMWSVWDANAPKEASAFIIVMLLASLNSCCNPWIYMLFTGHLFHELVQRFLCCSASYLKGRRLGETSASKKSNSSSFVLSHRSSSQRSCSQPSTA

[10] = Vero E6 cell cytotoxicity, dose response, cytotoxicity control for non-replicating M. tuberculosis project, secondary assay (AID 492998); assay type: functional, VeroE6; conditions: Vero C1008
[11] = THP-1 cell cytotoxicity, dose response, cytotoxicity control for non-replicating M. tuberculosis project (AID 489025); assay type: functional
[12] = biological target: Cytochrome P450 2C9 (Homo sapiens, UniProt P11712)
Chain of Cytochrome P450 2C9 (P11712 whole entry): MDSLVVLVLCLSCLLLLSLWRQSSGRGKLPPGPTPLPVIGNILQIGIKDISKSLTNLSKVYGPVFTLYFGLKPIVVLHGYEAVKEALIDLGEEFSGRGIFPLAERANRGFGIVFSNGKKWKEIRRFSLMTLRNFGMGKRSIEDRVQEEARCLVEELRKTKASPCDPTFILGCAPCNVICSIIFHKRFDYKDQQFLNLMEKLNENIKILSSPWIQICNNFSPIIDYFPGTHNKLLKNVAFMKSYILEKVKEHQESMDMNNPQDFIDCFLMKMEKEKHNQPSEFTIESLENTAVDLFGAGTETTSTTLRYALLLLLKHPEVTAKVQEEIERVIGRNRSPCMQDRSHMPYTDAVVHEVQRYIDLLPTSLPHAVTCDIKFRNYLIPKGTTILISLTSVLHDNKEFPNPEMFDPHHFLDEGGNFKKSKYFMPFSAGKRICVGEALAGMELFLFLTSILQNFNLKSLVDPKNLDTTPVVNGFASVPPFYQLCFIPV

[13] = biological target: T3, Orexin/Hypocretin receptor type 1 (Homo sapiens, UniProt O43613); assay: (§1) Fluorescence-based cell-based high throughput dose response assay for antagonists of the orexin 1 receptor (OX1R; HCRTR1). [Related pubchem assays (depositor defined):AID434989, AID435008, AID463079, AID485270, AID492963, AID492964, AID492965, AID493232, AID504717, AID504718]; assay type: functional
T3 sequence (O43613 whole entry): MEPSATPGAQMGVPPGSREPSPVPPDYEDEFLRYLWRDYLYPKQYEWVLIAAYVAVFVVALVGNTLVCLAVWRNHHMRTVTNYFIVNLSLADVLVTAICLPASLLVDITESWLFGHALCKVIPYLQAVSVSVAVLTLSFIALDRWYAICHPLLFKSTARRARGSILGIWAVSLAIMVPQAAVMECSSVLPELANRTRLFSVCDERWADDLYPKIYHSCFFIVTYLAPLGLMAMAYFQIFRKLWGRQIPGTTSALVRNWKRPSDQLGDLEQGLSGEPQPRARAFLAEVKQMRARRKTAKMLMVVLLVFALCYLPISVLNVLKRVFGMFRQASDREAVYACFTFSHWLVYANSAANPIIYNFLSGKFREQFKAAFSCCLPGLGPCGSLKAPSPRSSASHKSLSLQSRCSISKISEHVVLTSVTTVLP

[14] = (§2) Counterscreen for antagonists of the orexin 1 receptor (OX1R; HCRTR1): Fluorescence-based cell-based high throughput dose response assay to identify antagonists of the parental CHO cell line. [Related pubchem assays (depositor defined):AID434989, AID435008, AID463079, AID485270, AID492963, AID492964, AID492965, AID493232, AID504699, AID504701]; assay type: functional
[15] = biological target: T4, Orexin receptor type 2 (Homo sapiens, UniProt O43614); assay: Counterscreen assay for antagonists of the orexin 1 receptor (OX1R; HCRTR1): Fluorescence-based cell-based dose response assay for antagonists of the orexin 2 receptor (OX2R; HCRTR2), run by assay provider.; assay type: functional
T4 sequence (O43614 whole entry): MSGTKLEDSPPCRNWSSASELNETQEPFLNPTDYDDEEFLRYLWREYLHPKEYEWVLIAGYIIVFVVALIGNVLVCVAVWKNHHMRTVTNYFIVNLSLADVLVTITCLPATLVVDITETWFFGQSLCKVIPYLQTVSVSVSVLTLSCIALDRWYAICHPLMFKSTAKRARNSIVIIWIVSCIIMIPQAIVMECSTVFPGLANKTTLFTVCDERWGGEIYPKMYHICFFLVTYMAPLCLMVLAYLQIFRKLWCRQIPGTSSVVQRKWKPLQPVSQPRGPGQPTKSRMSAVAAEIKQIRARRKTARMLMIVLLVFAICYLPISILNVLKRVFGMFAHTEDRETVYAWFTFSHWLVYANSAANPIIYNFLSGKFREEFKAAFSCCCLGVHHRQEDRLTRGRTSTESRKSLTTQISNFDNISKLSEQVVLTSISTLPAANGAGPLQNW

[16] = biological target: Peroxisome proliferator-activated receptor gamma/Nuclear receptor coactivator 1 (Homo sapiens, UniProt P37231); assay: TR-FRET dose response biochemical High Throughput Screening assay for agonists of the steroid receptor coactivator 1 (SRC-1) recruitment by the peroxisome proliferator-activated receptor gamma (PPAR gamma): non-selective agonists. [Related pubchem assays (depositor defined):AID1300, AID1808, AID504735, AID631]; assay type: protein assay
[17] = biological target: T3, Orexin/Hypocretin receptor type 1; assay: as §1, with “Homogeneous Time Resolved Fluorescence (HTRF)-based” for “Fluorescence-based”; assay type: functional
[18] = biological target: Photoreceptor-specific nuclear receptor (Homo sapiens, UniProt Q9Y5X4); assay: NR2E3 inverse agonists, dose response, biochemical, TR-FRET (AID 463256); assay type: functional
[19] = test system: CHO-K1; assay: as §2, with “Homogeneous time resolved fluorescence (HTRF)-based” for “Fluorescence-based”, “cell-based” for “cell-based high throughput”, “CHO-K1” for “CHO”; assay type: functional; conditions: Cricetulus griseus;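 also: potency for inhibition of ATP-stimulated IP1 production as antagonists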
[20] = biological target: Peroxisome proliferator-activated receptor gamma/Nuclear receptor coactivator 2 (Homo sapiens, UniProt P37231); assay: (§3) TR-FRET dose response biochemical High Throughput Screening assay for agonists of the steroid receptor coactivator 2 (SRC-2) recruitment by the peroxisome proliferator-activated receptor gamma (PPAR gamma): non-selective agonists. [Related pubchem assays: 1297, 1032 ]; assay type: functional
[21] = biological target: Peroxisome proliferator-activated receptor gamma/Nuclear receptor corepressor 2 (Homo sapiens, UniProt P37231+Q9Y618); assay: Counterscreen for NR2E3 inverse agonists: TR-FRET-based biochemical high throughput dose response assay to identify inverse agonists of the interaction between peroxisome proliferator-activated receptor gamma (PPARg) and nuclear receptor co-repressor 2 (NCOR2).; assay type: functional
[22] = biological target: Peroxisome proliferator-activated receptor gamma/Nuclear receptor coactivator 3 (Homo sapiens, UniProt P37231); assay: as §3, with “3 (SRC-3)” for “2 (SRC-2)”, “1301 (Confirmation screen.), 1048 (Primary screen.)]” for “1297, 1032 ]”; assay type: functional
[23] = biological target: T4, Orexin receptor type 2; assay: Counterscreen assay for antagonists of the orexin 1 receptor (OX1R; HCRTR1): Homogeneous Time Resolved Fluorescence (HTRF)-based cell-based dose response assay for antagonists of the orexin 2 receptor (OX2R; HCRTR2), run by assay provider.; assay type: functional
[24] = biological target: CAAX prenyl protease 1 (Saccharomyces cerevisiae S288c, UniProt P47154); assay: Ste24 protease inhibitors, dose response, biochemical, S. cerevisiae, plate reader, cherry-pick (AID 488815)
Chain of CAAX prenyl protease 1 (P47154 whole entry): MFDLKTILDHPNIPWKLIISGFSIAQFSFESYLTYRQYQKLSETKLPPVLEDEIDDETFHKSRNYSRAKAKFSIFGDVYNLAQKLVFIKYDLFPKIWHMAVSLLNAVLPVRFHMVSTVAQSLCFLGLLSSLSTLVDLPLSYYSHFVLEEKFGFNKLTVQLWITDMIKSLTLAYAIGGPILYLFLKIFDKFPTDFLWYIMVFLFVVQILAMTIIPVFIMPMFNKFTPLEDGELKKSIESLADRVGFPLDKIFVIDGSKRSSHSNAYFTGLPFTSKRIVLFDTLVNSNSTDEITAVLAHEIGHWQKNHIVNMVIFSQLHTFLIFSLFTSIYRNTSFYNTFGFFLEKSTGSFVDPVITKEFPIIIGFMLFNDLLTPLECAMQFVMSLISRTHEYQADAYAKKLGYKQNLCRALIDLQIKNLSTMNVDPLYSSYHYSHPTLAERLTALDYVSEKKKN

[25] = biological target: Cytochrome P450 3A4 (Homo sapiens, UniProt P08684);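 also: CYP3A4 tested as one member of a cytochrome P450 panel screen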
Chain of Cytochrome P450 3A4 (P08684 whole entry): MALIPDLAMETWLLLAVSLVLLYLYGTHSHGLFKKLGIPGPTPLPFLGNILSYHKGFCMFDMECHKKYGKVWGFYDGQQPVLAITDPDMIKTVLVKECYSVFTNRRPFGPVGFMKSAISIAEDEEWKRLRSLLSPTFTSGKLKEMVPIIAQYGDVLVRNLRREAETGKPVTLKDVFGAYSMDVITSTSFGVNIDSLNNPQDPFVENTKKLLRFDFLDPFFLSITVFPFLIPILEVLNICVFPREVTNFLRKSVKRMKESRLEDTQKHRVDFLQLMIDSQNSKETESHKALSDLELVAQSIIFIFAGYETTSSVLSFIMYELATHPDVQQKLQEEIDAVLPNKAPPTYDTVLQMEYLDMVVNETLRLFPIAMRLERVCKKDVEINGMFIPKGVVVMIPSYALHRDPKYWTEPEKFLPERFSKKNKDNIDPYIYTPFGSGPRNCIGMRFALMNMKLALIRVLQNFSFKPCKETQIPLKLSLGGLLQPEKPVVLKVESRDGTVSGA

[26] = biological target: Cytochrome P450 2D6 (Homo sapiens, UniProt P10635);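 also: CYP2D6 member of a cytochrome P450 panel assay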
Chain of Cytochrome P450 2D6 (P10635 whole entry): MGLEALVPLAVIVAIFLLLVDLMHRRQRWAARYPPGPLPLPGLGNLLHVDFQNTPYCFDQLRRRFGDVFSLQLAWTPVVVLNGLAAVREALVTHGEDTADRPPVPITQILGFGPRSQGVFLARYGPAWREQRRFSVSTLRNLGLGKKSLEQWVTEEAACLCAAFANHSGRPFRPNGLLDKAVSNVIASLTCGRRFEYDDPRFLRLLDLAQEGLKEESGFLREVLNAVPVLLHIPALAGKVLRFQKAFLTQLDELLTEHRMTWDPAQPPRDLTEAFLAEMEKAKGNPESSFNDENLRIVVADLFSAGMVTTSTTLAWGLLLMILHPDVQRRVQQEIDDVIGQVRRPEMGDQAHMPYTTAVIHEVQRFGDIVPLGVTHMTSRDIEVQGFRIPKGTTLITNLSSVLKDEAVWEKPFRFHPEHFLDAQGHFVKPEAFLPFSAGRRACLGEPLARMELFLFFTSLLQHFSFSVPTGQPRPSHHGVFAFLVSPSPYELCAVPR

T1 sequence (Q9UBE0 whole entry): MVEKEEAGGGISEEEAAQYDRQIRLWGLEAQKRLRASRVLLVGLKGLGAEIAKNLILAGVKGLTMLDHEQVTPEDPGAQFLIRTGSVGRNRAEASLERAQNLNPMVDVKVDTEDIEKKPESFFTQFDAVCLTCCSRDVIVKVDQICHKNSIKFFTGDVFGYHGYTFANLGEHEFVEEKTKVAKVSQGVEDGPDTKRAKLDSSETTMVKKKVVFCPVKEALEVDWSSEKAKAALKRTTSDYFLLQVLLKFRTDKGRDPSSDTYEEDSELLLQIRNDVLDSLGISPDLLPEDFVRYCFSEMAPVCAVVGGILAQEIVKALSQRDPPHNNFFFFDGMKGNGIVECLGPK
T1 sequence (Q9UBT2 whole entry): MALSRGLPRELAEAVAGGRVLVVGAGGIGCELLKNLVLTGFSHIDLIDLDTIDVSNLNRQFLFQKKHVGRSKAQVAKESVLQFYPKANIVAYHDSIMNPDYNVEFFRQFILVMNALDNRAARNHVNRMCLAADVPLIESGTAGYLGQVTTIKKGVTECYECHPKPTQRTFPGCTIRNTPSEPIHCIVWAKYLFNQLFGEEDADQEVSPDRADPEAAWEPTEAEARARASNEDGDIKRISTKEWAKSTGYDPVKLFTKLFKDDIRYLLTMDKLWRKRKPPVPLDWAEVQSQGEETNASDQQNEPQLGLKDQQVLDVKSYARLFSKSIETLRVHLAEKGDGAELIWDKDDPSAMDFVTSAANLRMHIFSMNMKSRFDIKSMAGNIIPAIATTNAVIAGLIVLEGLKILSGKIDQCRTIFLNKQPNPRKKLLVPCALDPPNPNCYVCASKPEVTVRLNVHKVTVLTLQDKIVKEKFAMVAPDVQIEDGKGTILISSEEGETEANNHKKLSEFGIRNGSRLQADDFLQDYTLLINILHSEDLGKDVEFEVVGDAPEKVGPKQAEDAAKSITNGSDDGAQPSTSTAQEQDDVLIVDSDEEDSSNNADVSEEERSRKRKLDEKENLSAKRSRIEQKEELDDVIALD

With `COc1ccc(/C=C2/SC(=S)N(c3ccc(S(=O)(=O)Nc4nccs4)cc3)C2=O)cc1` the IC50 [1] was 1.18 µM (active), the IC50 [2] was 5.9 µM (active) and the IC50 [3] was 1.98 µM (active).
With `COc1ccc(CC2(CO)CCN(Cc3cnn(C)c3)CC2)cc1` the IC50 [4] was > 100 µM (not active) and the IC50 [5] was > 100 µM (inactive).
For `Clc1ccc2c(c1)C(N1CCNCC1)Cc1ccccc1S2` (stereo unspecified), the CC50 [6] was 8.65 µM (active), the EC50 [7] was 21.3 µM (not active) and the IC50 [8] was 15.5 µM (active). The EC50 [9] was > 9.97 µM (active), the CC50 [10] was 11.5 µM (active) and the CC50 [11] was 12 µM (active).
In the case of `CCOc1ccccc1Oc1coc2cc(OC)ccc2c1=O`, the AC50 [12] is reported as “inconclusive”.
For `NS(=O)(=O)c1ccc(CNC(=O)c2cc(-c3ccccn3)nc3ccc(Cl)cc23)cc1`, the IC50 [13] was > 49.7 µM (inactive), the IC50 [14] was > 49.7 µM (inactive) and the IC50 [15] was 30.1 µM (inactive). For the same compound, the EC50 [16] was 6.13 µM (active), the IC50 [17] was 2.46 µM (active) and the IC50 [18] was > 4.43 µM (active). The IC50 [19] was > 66.2 µM (inactive), the EC50 [20] was 5.82 µM (active) and the IC50 [21] was > 39.9 µM (not active). The EC50 [22] was 17.6 µM (not active) and the IC50 [23] was > 50 µM (inactive).
In the case of `COc1cc(OC)cc(-c2ncc3ccccn23)c1`, the AC50 [24] is reported as 5.47 µM (active).
With `Br/C(=N\N=c1/nn[nH][nH]1)c1ccncc1` the AC50 [25] was 5.01 µM (inconclusive) and the AC50 [26] was “inconclusive”.
